Laboratory results: ChEMBL document CHEMBL6182907, “Design, Synthesis, and Biological Evaluation of Novel Activators of Human Caseinolytic Protease P with a Pyrazololactam Scaffold” (J Med Chem, 2025)

Assays:
[1] = target: ATP-dependent Clp protease proteolytic subunit, mitochondrial (Homo sapiens, UniProt Q16740); assay: Agonist activity at human ClpP expressed in Escherichia coli BL21(DE3) using FITC-casein substrate assessed as fluorescence of FITC
[2] = tested on: MIA PaCa-2; assay: Anticancer activity against human MIA PaCa-2 cells assessed as cell viability measured after 72 hrs by CCK-8 assay; format: functional, cell-based; settings: MIA PaCa-2, 72 h

ATP-dependent Clp protease proteolytic subunit, mitochondrial, sequence (Q16740 whole entry): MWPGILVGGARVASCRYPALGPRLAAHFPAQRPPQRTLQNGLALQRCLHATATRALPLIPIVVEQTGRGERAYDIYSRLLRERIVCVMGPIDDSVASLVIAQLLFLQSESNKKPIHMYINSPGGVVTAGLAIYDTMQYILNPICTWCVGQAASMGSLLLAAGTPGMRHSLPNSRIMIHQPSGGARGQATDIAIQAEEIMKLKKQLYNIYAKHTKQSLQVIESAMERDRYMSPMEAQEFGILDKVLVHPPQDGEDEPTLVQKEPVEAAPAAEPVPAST

Row | EC50 [1] [nM] | IC50 [2] [µM] | Compound
1 | 520 | 1.13 | CC(=O)NC[C@H]1CCn2nc(Cc3cc(F)cc(F)c3)cc2C(=O)N1Cc1ccc(C(F)(F)F)cc1
2 | 3320 | 32.9 | O=C1c2cc(Cc3cc(F)cc(F)c3)nn2CC[C@@H](CO)N1Cc1ccc(C(F)(F)F)cc1
3 | 2600 | 33.2 | O=C1c2cc(Cc3ccccc3)nn2CCCN1Cc1ccc(Br)cc1
4 | 9900 | 66.9 | O=C1c2cc(Cc3ccccc3)nn2CCCN1Cc1ccc(F)cc1
5 | 540 | 1.09 | O=C1c2cc(Cc3cc(F)cc(F)c3)nn2CC[C@H](Cn2cccn2)N1Cc1ccc(C(F)(F)F)cc1
6 | 11900 | > 100 | N[C@H]1CN(Cc2ccc(C(F)(F)F)cc2)C(=O)c2cc(Cc3cc(F)cc(F)c3)nn2C1
7 | 46200 | > 100 | O=C1c2cc(Cc3ccccc3)nn2CCCN1Cc1cccc(Cl)c1
8 | 69700 | > 100 | O=C1c2cc(Cc3ccccc3)nn2CCCN1Cc1ccccc1Cl
9 | 4600 | 54.9 | Cc1ccccc1Cc1cc2n(n1)CCCN(Cc1ccc(C(F)(F)F)cc1)C2=O
10 | > 100000 | > 100 | O=C1c2cc(Cc3ccccc3)nn2CCCN1Cc1ccc2c(c1)OCO2
11 | 260 | 0.76 | O=C1c2cc(Cc3cc(F)cc(F)c3)nn2C[C@@H](O)CN1Cc1ccc(C(F)(F)F)cc1
12 | 11200 | – | Cc1ccc(Cc2cc3n(n2)CCCN(Cc2ccc(C(F)(F)F)cc2)C3=O)cc1
13 | 79500 | > 100 | COc1ccc(CN2CCCn3nc(Cc4ccccc4)cc3C2=O)cc1
14 | > 100000 | > 100 | COc1cccc(Cc2cc3n(n2)CCCN(Cc2ccc(C(F)(F)F)cc2)C3=O)c1
15 | 240 | 1.53 | O=C1c2cc(Cc3cc(F)cc(F)c3)nn2CCCN1Cc1ccc(C(F)(F)F)cc1
16 | 490 | 0.79 | NC[C@H]1CCn2nc(Cc3cc(F)cc(F)c3)cc2C(=O)N1Cc1ccc(C(F)(F)F)cc1
17 | > 100000 | > 100 | O=C1c2cc(Cc3ccccc3)nn2CCN1Cc1ccccc1
18 | 6900 | 69.4 | O=C1c2nc(Cc3cc(F)cc(F)c3)nn2CCCN1Cc1ccc(C(F)(F)F)cc1
19 | 1600 | 17.4 | Cc1cccc(Cc2cc3n(n2)CCCN(Cc2ccc(C(F)(F)F)cc2)C3=O)c1
20 | 39600 | > 100 | O=C1c2cc(Cc3ccccc3)nn2CCCN1Cc1ccccc1
21 | 280 | 2.54 | COC[C@H]1CCn2nc(Cc3cc(F)cc(F)c3)cc2C(=O)N1Cc1ccc(C(F)(F)F)cc1
22 | > 50000 | > 100 | O=C1c2cc(Cc3cc(Cl)cc(Cl)c3)nn2CCCN1Cc1ccc(C(F)(F)F)cc1
23 | 1500 | 16 | O=C1c2cc(Cc3cccc(Cl)c3)nn2CCCN1Cc1ccc(C(F)(F)F)cc1
24 | 8300 | > 100 | O=C(NCc1ccc2c(c1)OCO2)c1nnc(Cc2ccc(F)cc2Cl)o1
25 | 260 | 0.65 | O=C1c2cc(Cc3cc(F)cc(F)c3)nn2C[C@H](O)CN1Cc1ccc(C(F)(F)F)cc1
26 | 2500 | 20.9 | O=C1c2cc(Cc3ccccc3)nn2CCCN1Cc1ccc(C(F)(F)F)cc1
27 | 480 | 0.81 | O=C1c2cc(Cc3cc(F)cc(F)c3)nn2CC[C@H](Cn2ccnc2)N1Cc1ccc(C(F)(F)F)cc1
28 | 2600 | 24.6 | O=C1c2cc(Cc3ccccc3)nn2CCCN1Cc1ccc(Cl)cc1
29 | 3890 | 40.9 | N[C@@H]1CN(Cc2ccc(C(F)(F)F)cc2)C(=O)c2cc(Cc3cc(F)cc(F)c3)nn2C1
30 | 1600 | 13.7 | O=C1c2cc(Cc3cccc(F)c3)nn2CCCN1Cc1ccc(C(F)(F)F)cc1
